In patent US8933070B2, “Methods of targeting PTEN mutant diseases and compositions therefor” (University Health Network, priority 2010, dated 2015) one finds inhibition, GI50 and IC50 data, which are given here for 3 compounds.

One assay deals with JNK 2 (Homo sapiens, UniProt P45984). The assay can be described thus: Kinase selectivity assay (CEREP, HTRF). The format is biochemical. As to conditions: read-out: % Inhibition at 10 μM Concentration. On the procedure: (§1) The inhibitory activity of selected compounds was evaluated against a panel of 45 different kinase enzymes by CEREP, France. The assays were performed using standard HTRF assay methods as documented by CEREP against the human orthologues of Abl kinase, Akt1/PKBa, AMPKa, BMX kinase (Etk), Brk, CaMK2a, CaMK4, CDC2/CDK1 (cycB), CHK1, CHK2, c-Met kinase, CSK, EphB4 kinase, ERK1, ERK2 (P42mapk), FGFR2 kinase, FGFR4 kinase, FLT-1 kinase (VEGFR1), FLT-3 kinase, Fyn kinase, IGF1R kinase, IRK (InsR), JNK 2, KDR kinase (VEGFR2), Lck kinase, Lyn kinase, MAPKAPK2, MEK1/MAP2K1, p38a kinase, p38d kinase, p38g kinase, PDGFRb kinase, PDK1, PKA, PKCa, PKCb1, PKCb2, PKCg, Ret kinase, ROCK2, RSK2, Src kinase, Syk, and TRKA. The % Inhibition was determined by the formula; % Inhibition=100×(1−(experimental value−background value)/(high activity control−background value)).
A general note: Time-resolved FRET reads energy transfer from a long-lived donor to a nearby acceptor.

For the next assay, the target named is PKA (Homo sapiens, UniProt P17612). Put plainly: Kinase selectivity assay (CEREP, HTRF). Format: biochemical. As to conditions: read-out: % Inhibition at 10 μM Concentration. How it is done:
as §1

The next assay concerns the target PDGFRbeta (Homo sapiens, UniProt P09619). The assay can be described thus: Kinase selectivity assay (CEREP, HTRF). The format is biochemical. To be noted: read-out: % Inhibition at 10 μM Concentration. On the procedure:
as §1

The next assay addresses EphB4 (Homo sapiens, UniProt P54760). The assay can be described thus: Kinase selectivity assay (CEREP, HTRF). Format: biochemical. To be noted: read-out: % Inhibition at 10 μM Concentration. How it is done: as §1
The next assay addresses PDK1 (Homo sapiens, UniProt O15530). Put plainly: Kinase selectivity assay (CEREP, HTRF). Format: biochemical. As to conditions: read-out: % Inhibition at 10 μM Concentration. On the procedure:
as §1

A further assay addresses Fyn (Homo sapiens, UniProt P06241). Put plainly: Kinase selectivity assay (CEREP, HTRF). To be noted: read-out: % Inhibition at 10 μM Concentration. Format: biochemical. How it is done: as §1
Another assay has as its target ERK (P42mapk) (Homo sapiens, UniProt P28482). The assay can be described thus: Kinase selectivity assay (CEREP, HTRF). As to conditions: read-out: % Inhibition at 10 μM Concentration. Format: biochemical. How it is done: as §1
A further assay concerns the target CaMK2alpha (Homo sapiens, UniProt Q9UQM7). Put plainly: Kinase selectivity assay (CEREP, HTRF). To be noted: read-out: % Inhibition at 10 μM Concentration. Format: biochemical. How it is done: as §1
Another assay deals with FLT-1 (VEGFR1) (Homo sapiens, UniProt P17948). Put plainly: Kinase selectivity assay (CEREP, HTRF). The format is biochemical. To be noted: read-out: % Inhibition at 10 μM Concentration. How it is done: as §1
In the next assay the target is FGFR4 (Homo sapiens, UniProt P22455). Put plainly: Kinase selectivity assay (CEREP, HTRF). The format is biochemical. To be noted: read-out: % Inhibition at 10 μM Concentration. On the procedure:
as §1

The next assay deals with PKCbeta 1 (Homo sapiens, UniProt P05771). Put plainly: Kinase selectivity assay (CEREP, HTRF). The format is biochemical. To be noted: read-out: % Inhibition at 10 μM Concentration. On the procedure: as §1
The target of a further assay is ROCK2 (Homo sapiens, UniProt O75116). Put plainly: Kinase selectivity assay (CEREP, HTRF). Format: biochemical. To be noted: read-out: % Inhibition at 10 μM Concentration. On the procedure:
as §1

The next assay concerns the target Src (Homo sapiens, UniProt P12931). The assay can be described thus: Kinase selectivity assay (CEREP, HTRF). The format is biochemical. As to conditions: read-out: % Inhibition at 10 μM Concentration. On the procedure: as §1
Another assay deals with p38alpha (Homo sapiens, UniProt Q16539). The assay can be described thus: Kinase selectivity assay (CEREP, HTRF). Format: biochemical. To be noted: read-out: % Inhibition at 10 μM Concentration. On the procedure:
as §1

The target in the next assay is p38delta (Homo sapiens, UniProt O15264). The assay can be described thus: Kinase selectivity assay (CEREP, HTRF). Format: biochemical. To be noted: read-out: % Inhibition at 10 μM Concentration. How it is done: as §1
In another assay the target is p38gamma (Homo sapiens, UniProt P53778). Put plainly: Kinase selectivity assay (CEREP, HTRF). To be noted: read-out: % Inhibition at 10 μM Concentration. The format is biochemical. On the procedure: as §1
The target of the next assay is CHK2 (Homo sapiens, UniProt O96017). Put plainly: Kinase selectivity assay (CEREP, HTRF). Format: biochemical. As to conditions: read-out: % Inhibition at 10 μM Concentration. On the procedure: as §1
For another assay, the target named is Abl kinase (Homo sapiens, UniProt P00519). The assay can be described thus: Kinase selectivity assay (CEREP, HTRF). Format: biochemical. As to conditions: read-out: % Inhibition at 10 μM Concentration. How it is done:
as §1

A further assay addresses RSK2 (Homo sapiens, UniProt P51812). The assay can be described thus: Kinase selectivity assay (CEREP, HTRF). To be noted: read-out: % Inhibition at 10 μM Concentration. The format is biochemical. How it is done: as §1
Another assay deals with IGF1R (Homo sapiens, UniProt P08069). Put plainly: Kinase selectivity assay (CEREP, HTRF). As to conditions: read-out: % Inhibition at 10 μM Concentration. The format is biochemical. How it is done: as §1
Another assay addresses Lck (Homo sapiens, UniProt P06239). Put plainly: Kinase selectivity assay (CEREP, HTRF). Format: biochemical. As to conditions: read-out: % Inhibition at 10 μM Concentration. How it is done: as §1
The target in the next assay is c-Met (Homo sapiens, UniProt P08581). Put plainly: Kinase selectivity assay (CEREP, HTRF). As to conditions: read-out: % Inhibition at 10 μM Concentration. The format is biochemical. On the procedure:
as §1

Another assay deals with CDC2/CDK1 (Homo sapiens, UniProt P06493). The assay can be described thus: Kinase selectivity assay (CEREP, HTRF). Format: biochemical. To be noted: read-out: % Inhibition at 10 μM Concentration. On the procedure: as §1
The target in the next assay is Ret (Homo sapiens, UniProt P07949). Put plainly: Kinase selectivity assay (CEREP, HTRF). The format is biochemical. To be noted: read-out: % Inhibition at 10 μM Concentration. On the procedure: as §1
In a further assay the target is CaMK4 (Homo sapiens, UniProt Q16566). The assay can be described thus: Kinase selectivity assay (CEREP, HTRF). Format: biochemical. To be noted: read-out: % Inhibition at 10 μM Concentration. On the procedure: as §1
In assay [1] the test system is HCC1954 basal breast cancer cell line. The assay can be described thus: Cell growth inhibition, Sulforhodamine B (SRB) assay. The format is cell-based. As to conditions: Homo sapiens. On the procedure:
Aliquots (20 μl) from each concentration were overlaid to 80 μl of the pre-seeded cells in the 96-plates to make final concentrations of 10 nM to 50 μM. The cells were cultured for 5 days before the Sulforhodamine B (SRB) assay was performed to determine the compound's cell growth inhibition activity.
Sulforhodamine B (Sigma, Canada) is a water-soluble dye that binds to the basic amino acids of cellular proteins. Thus, colorimetric measurement of the bound dye provides an estimate of the total protein mass that is related to the cell number. The cells are fixed in situ by gently aspirating off the culture media and adding 50 μl ice cold 10% Trichloroacetic Acid (TCA) per well and incubated at 4° C. for 30-60 min. The plates are washed with water five times and allowed to air dry for 5 min. Addition of 50 μl 0.4% (w/v) SRB solution in 1% (v/v) acetic acid to each well and incubatation for […] at RT completes the staining reaction. Following staining, plates are washed four times with 1% acetic acid to remove unbound dye and then allowed to air dry for 5 min. […] Absorbance is read at 570 nm.
The percentage (%) of relative growth inhibition was calculated by comparing to DMSO-treated only cells (100%). GI50's were determined for compounds with cytotoxic activity. The GI50 was calculated using GraphPad PRISM software (GraphPad Software, Inc., USA).
The SRB assay described above was used to assay test compounds against the extended panel (Table 6).
On the technique in general: Sulforhodamine B stains cellular protein and so reports cell mass.

The next assay deals with T1, Aurora B (Homo sapiens, UniProt Q96GD4).
T1 construct: purchased Invitrogen PV3970
The assay can be described thus: Aurora B inhibition assay (Z-Lyte). Format: biochemical. As to conditions: read-out: IC50 Ranges Aurura B. On the procedure: Aurora B inhibition was determined using the Z-Lyte assay kit from Invitrogen. […] The % inhibition values were determined according to the manufacturer's directions and IC50 values were obtained using a non-linear 4 point logistic curve fit (XLfit4, IDBS).

Where [2] appears, read: HCC1954, 120 h, read-out: Cell Line GI50 Range HCC1954.

Usually GI50 stands for the concentration that inhibits growth by half. Usually IC50 stands for the midpoint of a concentration-inhibition curve.

Read-outs that look alike come from different tables or passages of the source.

Chain of IGF1R (P08069 31-1367): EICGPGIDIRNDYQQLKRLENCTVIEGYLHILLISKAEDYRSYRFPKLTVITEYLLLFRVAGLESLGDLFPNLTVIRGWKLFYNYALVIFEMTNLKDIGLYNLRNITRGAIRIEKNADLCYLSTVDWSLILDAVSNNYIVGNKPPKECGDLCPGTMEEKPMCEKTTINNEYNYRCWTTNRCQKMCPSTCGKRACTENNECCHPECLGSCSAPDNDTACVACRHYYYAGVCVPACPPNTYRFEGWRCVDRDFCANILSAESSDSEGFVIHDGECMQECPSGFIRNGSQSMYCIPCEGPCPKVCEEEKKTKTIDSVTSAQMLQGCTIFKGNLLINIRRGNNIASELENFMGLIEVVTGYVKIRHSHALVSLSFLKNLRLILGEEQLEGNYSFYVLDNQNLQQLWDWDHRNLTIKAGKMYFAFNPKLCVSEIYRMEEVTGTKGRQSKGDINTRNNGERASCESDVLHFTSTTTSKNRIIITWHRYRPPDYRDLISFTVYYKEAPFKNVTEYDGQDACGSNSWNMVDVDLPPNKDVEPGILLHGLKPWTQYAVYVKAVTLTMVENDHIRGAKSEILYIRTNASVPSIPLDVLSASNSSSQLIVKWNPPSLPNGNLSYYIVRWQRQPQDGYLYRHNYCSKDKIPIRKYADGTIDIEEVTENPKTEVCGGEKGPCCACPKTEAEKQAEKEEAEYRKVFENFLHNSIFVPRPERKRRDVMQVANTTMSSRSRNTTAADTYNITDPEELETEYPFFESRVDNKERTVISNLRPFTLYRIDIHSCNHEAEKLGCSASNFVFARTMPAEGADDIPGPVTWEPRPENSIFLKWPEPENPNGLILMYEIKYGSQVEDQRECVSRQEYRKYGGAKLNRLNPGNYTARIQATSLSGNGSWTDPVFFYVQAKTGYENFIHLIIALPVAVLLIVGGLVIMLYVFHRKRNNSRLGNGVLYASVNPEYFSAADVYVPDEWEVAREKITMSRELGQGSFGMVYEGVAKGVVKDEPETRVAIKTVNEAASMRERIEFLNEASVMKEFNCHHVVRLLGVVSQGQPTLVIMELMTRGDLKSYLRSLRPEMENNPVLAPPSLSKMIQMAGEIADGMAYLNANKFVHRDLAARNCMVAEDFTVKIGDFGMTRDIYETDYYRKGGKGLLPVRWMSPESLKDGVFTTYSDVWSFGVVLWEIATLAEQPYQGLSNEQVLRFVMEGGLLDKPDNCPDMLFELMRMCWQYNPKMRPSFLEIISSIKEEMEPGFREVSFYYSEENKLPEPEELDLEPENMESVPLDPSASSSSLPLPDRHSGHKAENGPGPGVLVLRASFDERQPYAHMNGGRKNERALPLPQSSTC
Chain of PKCbeta 1 (P05771 whole entry): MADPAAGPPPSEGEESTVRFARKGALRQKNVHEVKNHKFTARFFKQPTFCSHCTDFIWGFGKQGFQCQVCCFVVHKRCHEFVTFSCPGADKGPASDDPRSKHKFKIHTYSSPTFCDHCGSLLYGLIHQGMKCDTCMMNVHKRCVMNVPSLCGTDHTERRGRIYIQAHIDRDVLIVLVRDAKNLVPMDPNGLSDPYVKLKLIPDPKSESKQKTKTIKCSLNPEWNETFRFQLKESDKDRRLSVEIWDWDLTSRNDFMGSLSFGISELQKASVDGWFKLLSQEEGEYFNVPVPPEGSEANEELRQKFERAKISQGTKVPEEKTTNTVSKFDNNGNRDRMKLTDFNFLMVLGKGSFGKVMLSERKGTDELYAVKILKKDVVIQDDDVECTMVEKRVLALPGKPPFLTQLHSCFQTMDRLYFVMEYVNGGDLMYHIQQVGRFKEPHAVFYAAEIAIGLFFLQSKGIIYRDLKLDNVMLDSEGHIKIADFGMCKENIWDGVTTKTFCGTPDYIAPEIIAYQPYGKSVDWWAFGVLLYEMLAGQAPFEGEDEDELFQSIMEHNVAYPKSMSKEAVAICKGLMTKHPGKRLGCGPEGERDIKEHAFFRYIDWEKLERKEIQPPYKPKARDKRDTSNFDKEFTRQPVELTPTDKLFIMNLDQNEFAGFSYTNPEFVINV
Chain of ERK (P42mapk) (P28482 whole entry): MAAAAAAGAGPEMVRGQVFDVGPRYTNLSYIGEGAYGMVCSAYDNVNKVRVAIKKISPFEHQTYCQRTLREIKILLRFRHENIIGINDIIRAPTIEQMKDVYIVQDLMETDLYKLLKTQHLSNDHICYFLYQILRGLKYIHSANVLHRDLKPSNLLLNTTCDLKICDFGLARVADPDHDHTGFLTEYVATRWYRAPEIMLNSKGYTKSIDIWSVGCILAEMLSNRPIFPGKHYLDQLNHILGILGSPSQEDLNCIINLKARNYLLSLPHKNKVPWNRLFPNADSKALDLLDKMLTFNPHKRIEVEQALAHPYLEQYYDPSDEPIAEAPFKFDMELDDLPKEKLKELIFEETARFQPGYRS
Chain of Ret (P07949 29-1114): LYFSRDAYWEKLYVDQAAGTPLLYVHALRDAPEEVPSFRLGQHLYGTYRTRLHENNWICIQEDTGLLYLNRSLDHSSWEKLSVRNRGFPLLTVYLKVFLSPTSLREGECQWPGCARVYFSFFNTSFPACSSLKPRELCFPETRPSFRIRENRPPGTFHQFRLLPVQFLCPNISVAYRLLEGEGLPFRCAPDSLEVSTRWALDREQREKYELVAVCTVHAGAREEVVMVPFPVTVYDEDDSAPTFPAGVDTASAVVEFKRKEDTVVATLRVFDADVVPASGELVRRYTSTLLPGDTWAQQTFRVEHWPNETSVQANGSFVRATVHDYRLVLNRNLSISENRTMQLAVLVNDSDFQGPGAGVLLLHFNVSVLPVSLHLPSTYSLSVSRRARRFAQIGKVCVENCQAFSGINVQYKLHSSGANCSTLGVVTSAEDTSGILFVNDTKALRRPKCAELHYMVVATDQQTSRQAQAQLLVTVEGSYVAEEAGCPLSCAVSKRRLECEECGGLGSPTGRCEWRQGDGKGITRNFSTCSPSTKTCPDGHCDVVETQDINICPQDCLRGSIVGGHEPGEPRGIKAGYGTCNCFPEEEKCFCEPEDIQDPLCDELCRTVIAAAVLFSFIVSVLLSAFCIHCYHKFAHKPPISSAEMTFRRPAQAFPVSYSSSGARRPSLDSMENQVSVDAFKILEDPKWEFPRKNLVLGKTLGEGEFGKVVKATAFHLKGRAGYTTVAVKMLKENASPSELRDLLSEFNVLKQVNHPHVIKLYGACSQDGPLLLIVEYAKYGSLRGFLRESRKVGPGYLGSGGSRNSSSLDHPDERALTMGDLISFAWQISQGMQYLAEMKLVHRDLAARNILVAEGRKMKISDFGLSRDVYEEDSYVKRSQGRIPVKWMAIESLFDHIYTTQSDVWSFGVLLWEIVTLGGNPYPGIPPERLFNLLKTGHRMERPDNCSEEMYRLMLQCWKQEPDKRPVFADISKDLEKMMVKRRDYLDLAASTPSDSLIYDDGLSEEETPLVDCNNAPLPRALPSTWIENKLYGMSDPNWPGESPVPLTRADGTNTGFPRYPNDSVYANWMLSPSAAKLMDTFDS
Chain of CDC2/CDK1 (P06493 whole entry): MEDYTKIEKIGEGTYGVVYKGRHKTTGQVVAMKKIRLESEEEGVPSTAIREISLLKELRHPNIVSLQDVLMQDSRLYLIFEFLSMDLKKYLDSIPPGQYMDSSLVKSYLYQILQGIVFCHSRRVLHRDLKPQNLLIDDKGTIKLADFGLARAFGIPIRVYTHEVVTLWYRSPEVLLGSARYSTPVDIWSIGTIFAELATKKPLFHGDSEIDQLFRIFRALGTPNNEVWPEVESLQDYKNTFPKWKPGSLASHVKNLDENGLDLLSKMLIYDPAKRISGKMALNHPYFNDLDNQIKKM
Chain of CDC2/CDK1 (P14635 whole entry partner): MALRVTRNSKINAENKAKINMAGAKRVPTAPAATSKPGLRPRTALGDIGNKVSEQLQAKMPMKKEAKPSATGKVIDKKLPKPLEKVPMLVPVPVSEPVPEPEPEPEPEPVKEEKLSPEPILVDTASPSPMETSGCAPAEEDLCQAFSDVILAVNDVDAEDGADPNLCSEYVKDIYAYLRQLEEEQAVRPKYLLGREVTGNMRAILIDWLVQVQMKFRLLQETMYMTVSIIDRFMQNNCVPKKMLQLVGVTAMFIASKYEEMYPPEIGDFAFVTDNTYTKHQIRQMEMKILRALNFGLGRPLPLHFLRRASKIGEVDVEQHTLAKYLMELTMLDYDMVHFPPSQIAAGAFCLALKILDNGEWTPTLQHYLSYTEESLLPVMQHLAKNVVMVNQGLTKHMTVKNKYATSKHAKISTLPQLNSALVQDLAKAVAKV
Chain of p38gamma (P53778 whole entry): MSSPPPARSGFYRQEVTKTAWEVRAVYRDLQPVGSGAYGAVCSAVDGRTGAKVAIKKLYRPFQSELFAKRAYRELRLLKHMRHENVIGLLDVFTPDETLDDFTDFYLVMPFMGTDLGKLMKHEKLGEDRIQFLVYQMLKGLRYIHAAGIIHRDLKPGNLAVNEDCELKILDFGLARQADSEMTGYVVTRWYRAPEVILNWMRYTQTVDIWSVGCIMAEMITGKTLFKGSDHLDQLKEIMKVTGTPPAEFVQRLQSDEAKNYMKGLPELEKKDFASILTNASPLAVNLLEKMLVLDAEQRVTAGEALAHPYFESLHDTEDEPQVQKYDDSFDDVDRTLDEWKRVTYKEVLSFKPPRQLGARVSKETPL
Chain of CaMK2alpha (Q9UQM7 whole entry): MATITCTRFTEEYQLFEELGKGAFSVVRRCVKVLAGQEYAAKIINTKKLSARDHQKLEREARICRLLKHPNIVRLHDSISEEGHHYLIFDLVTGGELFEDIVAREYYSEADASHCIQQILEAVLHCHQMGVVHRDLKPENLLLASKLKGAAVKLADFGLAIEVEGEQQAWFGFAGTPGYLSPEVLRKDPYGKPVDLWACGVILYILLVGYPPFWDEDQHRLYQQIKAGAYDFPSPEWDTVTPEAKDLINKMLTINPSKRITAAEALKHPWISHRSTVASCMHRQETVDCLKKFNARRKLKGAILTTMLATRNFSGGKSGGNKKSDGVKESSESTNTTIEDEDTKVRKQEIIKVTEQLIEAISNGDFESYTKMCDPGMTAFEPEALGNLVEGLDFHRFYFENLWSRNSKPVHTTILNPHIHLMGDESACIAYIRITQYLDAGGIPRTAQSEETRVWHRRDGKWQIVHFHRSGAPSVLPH

With `CN(C)Cc1ccc(/C=C/c2n[nH]c3cc([C@H]4C[C@@]45C(=O)Nc4ccccc45)ccc23)cc1` (racemic) [Compound 35], the inhibition at 10 µM is 5% at JNK 2; -7% on PKA; 59% on PDGFRbeta; 65% at EphB4; 2% at PDK1; 55% at Fyn. The inhibition at 10 µM was 2% at ERK (P42mapk); 9% on CaMK2alpha; 30% at FLT-1 (VEGFR1); -12% on FGFR4; -2% on PKCbeta 1 (PKCbeta 1, 10 μM); 32% on ROCK2. In addition, the inhibition at 10 µM was 51% at Src; -22% at p38alpha; 5% at p38delta; -5% on p38gamma; -3% on CHK2; 100% on Abl kinase. For the same compound, the inhibition at 10 µM was found to be 22% on RSK2; 0% at IGF1R (IGF1R, 10 μM); 100% on Lck; 61% at c-Met; 60% at CDC2/CDK1; 86% on Ret. Moreover, the inhibition at 10 µM at CaMK4 is -4%. Moreover, in assay [1] (setting [2]), the GI50 is less than 5 µM.
For the compound `COc1ccc2c(c1)/C(=C\c1ccc3c(/C=C/c4ccc(N5CCN(C)CC5)nc4)n[nH]c3c1)C(=O)N2` [Compound 3], the inhibition at 10 µM on JNK 2 was 15%; on PKA it was -5%; on PDGFRbeta, 14%; at EphB4, -1%; at PDK1 it was 5%; on Fyn it was 4%. Moreover, the inhibition at 10 µM is 15% at ERK (P42mapk); 2% on CaMK2alpha; 30% at FLT-1 (VEGFR1); -30% on FGFR4; 1% on PKCbeta 1 (PKCbeta 1, 10 μM); -20% on ROCK2. For the same compound, the inhibition at 10 µM at Src was 26%; at p38alpha, 22%; on p38delta, -2%; on p38gamma, 12%; at CHK2, -4%; at Abl kinase, 23%. Also, the inhibition at 10 µM at RSK2 is -4%; at IGF1R (IGF1R, 10 μM) it was 5%; at Lck, 13%; at c-Met, 2%; at CDC2/CDK1, 11%; at Ret, 33%. Further, on CaMK4, the inhibition at 10 µM is 6%. Further, the GI50 in assay [1] (HCC1954, read-out: GI50 Range HCC1954) was less than 5 µM. Also, the IC50 at Aurora B was less than 5 µM.
Turning to `COc1ccc2c(c1)[C@@]1(C[C@@H]1c1ccc3c(-c4ccc(N5CCN(C)CC5)nc4)n[nH]c3c1)C(=O)N2` (racemic) [Compound 2], the inhibition at 10 µM at PKCbeta 1 is -2%; at IGF1R, -3%. Further, the GI50 in assay [1] (setting [2]) was less than 5 µM. Besides, the IC50 on Aurora B is less than 5 µM.
